Patent publication US5045567A, “Propanolamine derivatives having anti-diabetic effects” (Hoffmann-La Roche Inc., priority 1989, dated 1991)
Structures can show the parent of a compound that is named as a salt. Where two headings read alike, the source gives them in different places.

Key:
[1] = Activity on oxygen consumption (male albino rats in metabolic cages, per os); type: in vivo; conditions: po; for response vs control in vivo at 3 µM, 3 µmol/kg: dosage 3 μM/kg
Description: (1) -Activity on oxygen consumption
Male albino rats weighing 160-180 g were placed in metabolic cages after fasting for 24 hours. The cages were ventilated with a constant 6 liter room air/minute which was equilibrated at a dew point of 11° C. Samples of the spent air were collected during periods of in each case 14 minutes after again equilibrating and the oxygen content and CO2 content were analyzed. After an adaptation time of 4 hours the animals, divided into groups of 6, received either placebo (5% gum arabic) or the test substance (suspended in 5% gum arabic) per os. Thereafter, the determinations were carried out for a period of 12 hours. In Table I the average oxygen consumption after medication during the first 3 hours and the entire test duration (12 hours) is given as percentage of the oxygen consumption during the adaptation period. Corresponding corrections for changes in the placebo group have been taken into consideration.

[2] = Activity on heart rate (male albino rats, electrocardiogram, per os); type: in vivo; conditions: rat; for Heart rate (% of controls), 1 hour: 1 hour after treatment; for Heart rate (% of controls), 3 hours: 3 hours after treatment
Description: (2) Activity on heart rate
Male albino rats weighing 250-320 g received 6 hours after withdrawl of food either placebo (5% gum arabic) or the test substance (suspended in 5% gum arabic) per os. The animals were subsequently immobilized in perforated plastic tubes. The electrocardiogram was derived by means of bipolar subcutaneous needle electrodes. The R-peak was used to trigger a beat counter. The heart rate measured 1 and 3 hours after treatment was given in Table II as a percentage of the control value (placebo).

[3] = 3 h, rat, per os, dosage 10 μM/kg, 1st-3rd hour, corrected for changes in placebo group, read-out: O2 consumption, % of the value of the pre-period, 1st-3rd hour
[4] = 12 h, rat, per os, dosage 10 μM/kg, 1st-12th hour, corrected for changes in placebo group, read-out: O2 consumption, % of the value of the pre-period, 1st-12th hour
[5] = 3 h, rat, per os, 1st-3rd hour, corrected for changes in placebo group, read-out: O2 consumption, % of the value of the pre-period, 1st-3rd hour
[6] = 12 h, rat, per os, 1st-12th hour, corrected for changes in placebo group, read-out: O2 consumption, % of the value of the pre-period, 1st-12th hour

Structure (SMILES)	response vs control in vivo at 10 µM, 10 µmol/kg [1, 3] [%]	response vs control in vivo at 10 µM, 10 µmol/kg [1, 4] [%]	Heart rate (% of controls), 1 hour ([2]; dosage 30 mg/kg)	Heart rate (% of controls), 1 hour ([2]; dosage 100 mg/kg)	response vs control in vivo at 3 µM, 3 µmol/kg [1, 5] [%]	response vs control in vivo at 3 µM, 3 µmol/kg [1, 6] [%]	Heart rate (% of controls), 1 hour ([2]; dosage 10 mg/kg)	Heart rate (% of controls), 3 hours ([2]; dosage 10 mg/kg)	Heart rate (% of controls), 3 hours ([2]; dosage 30 mg/kg)	response vs control in vivo at 10 µM, 10 µmol/kg ([1]; Rattus norvegicus, 3 h, read-out: O2 consumption, % of the value of the pre-period, 1st-3rd hour) [%]	response vs control in vivo at 10 µM, 10 µmol/kg ([1]; Rattus norvegicus, 12 h, read-out: O2 consumption, % of the value of the pre-period, 1st-12th hour) [%]	Heart rate (% of controls), 3 hours ([2]; dosage 100 mg/kg)
CCOCCOc1ccc(CCNCC(CO)c2cccs2)cc1.O=C(O)C(=O)O (stereo not drawn) [Example 2o, β-[[[p-(2-ethoxyethoxy)phenethyl]amino]methyl]-2-thiophene-ethanol oxalate]	147	115	108 % of controls	111 % of controls								
OCC(CNCCc1ccc(OCCOCCc2ccccc2)cc1)c1ccccc1 (stereo not drawn) [Example 2j, β-[[[p-(2-phenethoxy)ethoxy]phenethyl]amino]methyl]phenethyl alcohol oxalate]	137	113		110 % of controls								
CCOCCOc1ccc(CCN(CC(CO)c2ccccc2)CC(CO)c2ccccc2)cc1 (racemic) [Example 2c]			111 % of controls		132	108	103 % of controls	102 % of controls	104 % of controls			
CCOCCOc1ccc(CCN(CC(CO)c2cccc(Cl)c2)C[C@H](O)c2ccccc2)cc1 (stereo partly shown) [Example 2d, oxalate]			111 % of controls		152	127	103 % of controls	100 % of controls	104 % of controls			
CCOC(=O)COc1ccc(CCNCC(CO)c2ccccc2)cc1 (stereo not drawn) [Example 4, ethyl [p-[2-[[β-(hydroxymethyl)phenethyl]-amino]ethyl]phenoxy]acetate hydrochloride]					145	112						
CCOCCOc1ccc(C[C@@H](C)NCC(CO)c2ccccc2)cc1.O=C(O)C(=O)O (stereo partly drawn) [Example 2a, β-[[[(R)-p-(2-ethoxyethoxy)-α-methylphenethyl]amino]-methyl]-phenethyl alcohol oxalate]			105 % of controls	121 % of controls					100 % of controls	149	113	112 % of controls
CCOCCOc1ccc(CCNCC(CO)c2ccccc2)cc1.O=C(O)C(=O)O (single isomer, unassigned) [Example 3a, (R or S)-β-[[[p-(2-ethoxyethoxy)phenethyl]amino]methyl]-phenethyl alcohol oxalate]			115 % of controls		152	112	108 % of controls					
CCOCCOc1ccc(CCNCC(CO)c2cccc(Cl)c2)cc1.O=C(O)C(=O)O (stereo not drawn) [Example 2b, m-chloro-β-[[[p-(2-ethoxyethoxy)phenethyl]amino]methyl]phenethyl alcohol oxalate]			106 % of controls	114 % of controls	124	107			99 % of controls			105 % of controls
